Tested on: MiaPaCa2 pancreatic cancer cell line
Test: Oligonucleotide microarray gene expression after TSA (1 μM, 24 h) vs mock
Format: cell-based, human
Experimental: Mock-treated cells were cultured with the equivalent volume of PBS alone.
Total RNA was isolated from cultured cells using TRIZOL reagent (invitrogen, Carlsbad, Calif.) and purified using RNeasy Mini Kit (Qiagen, Valencia, Calif.). First- and second-stranded cDNA was synthesized from 10 μg of total RNA using 17-dT) primer (Genset Corp., La Jolla, Calif.) and Superscript Choice system (Invitrogen). Labeled cRNA was synthesized from the purified cDNA by in vitro transcription reaction using the BioArray High Yield RNA Transcript Labeling Kit (Enzo Diagnostics, Inc., Farmingdale, N.Y.) at 37° C. for 6 h. The cRNA was fragmented at 94° C. for 35 min. in a fragmentation buffer [40 mM Tris-acetate @ pH 8.1, 100 mM potassium acestate, and 30 mM magnesium acetate]. The fragmented cRNA was then hybridized to the Human Genome U133A chips (Affymetrix, Santa Clara, Calif.) with 18462 unique gene/EST transcripts at 45° C. for 16 h. The washing and staining procedure was performed in the Affymetrix Fluidics Station according to the manufacturer's instructions. The probes were then scanned using a laser scanner, and signal intensity for each transcript (background-subtracted and adjusted for noise) was calculated using Microarray Suite Software 5.0 (Affymetrix).
Fold change analysis of signal intensities obtained from oligonucleotide microarrays between the two treatment groups was performed using Data Mining software (Afrymetrix).

Q: For CC(/C=C/C(=O)NO)=C\[C@@H](C)C(=O)c1ccc(N(C)C)cc1 [TSA, trichostatin A], which “Fold-change after TSA treatment” value (ADM, MiaPaCa2) is on record?
A: Its value is 5.02 fold.

Q: What about the “Fold-change after TSA treatment” value (ANGPT1, MiaPaCa2) of the same compound?
A: Its value is 1.75 fold.

Q: And the “Fold-change after TSA treatment” value (AREG, MiaPaCa2)?
A: Its value is 3.97 fold.

Q: What about the “Fold-change after TSA treatment” value (ATF3, MiaPaCa2) of the same compound?
A: Its value is 2.14 fold.

Q: And the “Fold-change after TSA treatment” value (BIK, MiaPaCa2)?
A: Its value is 10.05 fold.

Q: And the “Fold-change after TSA treatment” value (CACNA1G, MiaPaCa2)?
A: Its value is 4.61 fold.

Q: What about the “Fold-change after TSA treatment” value (CAPN5, MiaPaCa2) of the same compound?
A: The value was 5.18 fold.

Q: And the “Fold-change after TSA treatment” value (CDH8, MiaPaCa2)?
A: The value was −1.29 fold.

Q: What about the “Fold-change after TSA treatment” value (CDKN1C, MiaPaCa2) of the same compound?
A: The value was 13.22 fold.

Q: And the “Fold-change after TSA treatment” value (CGR11, MiaPaCa2)?
A: Its value is 3.22 fold.

Q: What about the “Fold-change after TSA treatment” value (CHES1, MiaPaCa2) of the same compound?
A: Its value is −1.03 fold.

Q: What about the “Fold-change after TSA treatment” value (CHFR, MiaPaCa2) of the same compound?
A: Its value is 1.27 fold.

Q: And the “Fold-change after TSA treatment” value (CLDN15, MiaPaCa2)?
A: The value was 1.13 fold.

Q: And the “Fold-change after TSA treatment” value (EDR1, MiaPaCa2)?
A: The value was 5.91 fold.

Q: What about the “Fold-change after TSA treatment” value (EGR4, MiaPaCa2) of the same compound?
A: The value was 8.67 fold.

Q: And the “Fold-change after TSA treatment” value (EREG, MiaPaCa2)?
A: The value was 1.7 fold.

Q: And the “Fold-change after TSA treatment” value (GADD45B, MiaPaCa2)?
A: The value was 5.06 fold.

Q: What about the “Fold-change after TSA treatment” value (GAGE1, MiaPaCa2) of the same compound?
A: The value was 0.53 fold.

Q: What about the “Fold-change after TSA treatment” value (GAGE2, MiaPaCa2) of the same compound?
A: Its value is 1.31 fold.

Q: And the “Fold-change after TSA treatment” value (GAGE3, MiaPaCa2)?
A: Its value is −2.68 fold.

Q: What about the “Fold-change after TSA treatment” value (GAGE4, MiaPaCa2) of the same compound?
A: The value was 1.32 fold.

Q: What about the “Fold-change after TSA treatment” value (GAGE6, MiaPaCa2) of the same compound?
A: The value was −2.17 fold.

Q: What about the “Fold-change after TSA treatment” value (GAGE7B, MiaPaCa2) of the same compound?
A: Its value is −1.76 fold.

Q: What about the “Fold-change after TSA treatment” value (H1 historic family, member 2 (BC002649), MiaPaCa2) of the same compound?
A: The value was 4.16 fold.

Q: What about the “Fold-change after TSA treatment” value (HEP27, MiaPaCa2) of the same compound?
A: The value was 26.21 fold.

Q: What about the “Fold-change after TSA treatment” value (HMOX1, MiaPaCa2) of the same compound?
A: Its value is 5.25 fold.

Q: And the “Fold-change after TSA treatment” value (HPSE, MiaPaCa2)?
A: The value was 14.09 fold.

Q: And the “Fold-change after TSA treatment” value (ID2, MiaPaCa2)?
A: Its value is 2.27 fold.

Q: And the “Fold-change after TSA treatment” value (ING1, MiaPaCa2)?
A: Its value is 13.25 fold.

Q: What about the “Fold-change after TSA treatment” value (KLK12, MiaPaCa2) of the same compound?
A: Its value is 2.91 fold.

Q: What about the “Fold-change after TSA treatment” value (MAGE1, MiaPaCa2) of the same compound?
A: The value was 5.17 fold.

Q: What about the “Fold-change after TSA treatment” value (MBD1, MiaPaCa2) of the same compound?
A: Its value is 1.28 fold.

Q: What about the “Fold-change after TSA treatment” value (MMP1, MiaPaCa2) of the same compound?
A: The value was 1.01 fold.

Q: And the “transcripts with marked induction” value (MiaPaCa2)?
A: The value was 207 transcripts.

Q: And the “transcripts with marked induction, share of transcripts analyzed” value (MiaPaCa2)?
A: The value was 1.1%.

Q: What about the “Fold-change after TSA treatment” value (NGFR, MiaPaCa2) of the same compound?
A: Its value is 13.46 fold.

Q: And the “Fold-change after TSA treatment” value (NOTCH3, MiaPaCa2)?
A: Its value is −1.04 fold.

Q: What about the “Fold-change after TSA treatment” value (P-glycoprotein (mdr1), MiaPaCa2) of the same compound?
A: Its value is 2.74 fold.

Q: What about the “Fold-change after TSA treatment” value (STC1, MiaPaCa2) of the same compound?
A: The value was 2.73 fold.

Q: What about the “Fold-change after TSA treatment” value (UCPH, MiaPaCa2) of the same compound?
A: The value was 6.39 fold.

Q: What about the “Fold-change after TSA treatment” value (ULBP2, MiaPaCa2) of the same compound?
A: The value was 4.09 fold.

Q: And the “Fold-change after TSA treatment” value (WNT4, MiaPaCa2)?
A: The value was 3.36 fold.

Q: And the “Fold-change after TSA treatment” value (candidate tumor suppressor gene 21 protein (AF040708), MiaPaCa2)?
A: The value was 1.15 fold.

Q: And the “Fold-change after TSA treatment” value (connective tissue growth factor (M92934), MiaPaCa2)?
A: The value was 4.28 fold.

Q: What about the “Fold-change after TSA treatment” value (hemoglobin, alpha 1 (HBAI), MiaPaCa2) of the same compound?
A: The value was 77.77 fold.

Q: What about the “Fold-change after TSA treatment” value (interleukin 8, MiaPaCa2) of the same compound?
A: The value was 1.36 fold.

Q: And the “Fold-change after TSA treatment” value (period homolog 1 (PERI), MiaPaCa2)?
A: Its value is 1.28 fold.

Q: What about the “Fold-change after TSA treatment” value (prostate differentiation factor (AF003934), MiaPaCa2) of the same compound?
A: The value was 16.4 fold.

Q: What about the “Fold-change after TSA treatment” value (protease inhibitor 12 (neuroserpin) (SERPINU), MiaPaCa2) of the same compound?
A: The value was 44.44 fold.

Q: And the “Fold-change after TSA treatment” value (synovial sarcoma, X breakpoint 1 (BC001003), MiaPaCa2)?
A: Its value is 1.5 fold.

Q: And the “Fold-change after TSA treatment” value (tissue factor pathway inhibitor-2 (L27624), MiaPaCa2)?
A: Its value is −0.68 fold.
